{"source": "paper PMC8847575", "about": "“HSL1 and BAM1/2 impact epidermal cell development by sensing distinct signaling peptides” (Nature Communications, 2022)", "key": {"BAM1 LRR ectodomain": {"target": "T1, BAM1 LRR ectodomain (Arabidopsis thaliana, UniProt O49545)", "T1 construct": "BAM1 (residues 20–637, AT5G65700); azurocidin or Drosophila BIP signal peptide (secretion signal) (N); made in house; host or cells: Trichoplusia ni Tnao38 insect cells (baculovirus)", "T1 sequence (O49545 20-637)": "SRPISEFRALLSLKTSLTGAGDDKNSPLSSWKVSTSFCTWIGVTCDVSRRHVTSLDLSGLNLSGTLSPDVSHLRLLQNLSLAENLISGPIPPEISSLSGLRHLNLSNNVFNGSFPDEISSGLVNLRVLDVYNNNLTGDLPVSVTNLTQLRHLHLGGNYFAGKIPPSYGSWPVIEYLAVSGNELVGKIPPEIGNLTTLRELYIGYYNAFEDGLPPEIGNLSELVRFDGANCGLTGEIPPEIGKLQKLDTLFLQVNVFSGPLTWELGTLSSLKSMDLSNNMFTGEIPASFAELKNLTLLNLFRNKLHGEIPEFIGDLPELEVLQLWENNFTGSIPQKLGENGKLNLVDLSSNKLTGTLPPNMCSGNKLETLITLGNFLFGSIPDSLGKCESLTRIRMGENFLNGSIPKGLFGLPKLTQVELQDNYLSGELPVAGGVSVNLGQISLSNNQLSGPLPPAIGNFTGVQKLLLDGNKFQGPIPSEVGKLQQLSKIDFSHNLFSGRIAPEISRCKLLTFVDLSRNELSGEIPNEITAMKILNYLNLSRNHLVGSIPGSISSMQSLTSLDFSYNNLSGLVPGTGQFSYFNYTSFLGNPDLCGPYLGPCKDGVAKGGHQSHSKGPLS", "test": "ITC, peptide titrated into BAM1 ectodomain", "format": "binding", "excerpt": "All genes used for protein expression in Trichoplusia ni Tnao38 cells[46] were codon optimized and cloned into a modified pFastBac vector (Geneva Biotech) providing an azurocidin[47] or Drosophila BIP signal peptide, a TEV (tobacco etch virus protease) cleavage site and a Strep-9xHis tandem affinity tag at their carboxy terminus. The genes used are coding for the Arabidopsis ectodomains of HSL1 (residues 17-618, AT1G28440), HAE (residues 20-620, AT4G28490) SERK1 (residues 24–213, AT1G71830), and BAM1 (residues 20–637, AT5G65700). To perform Grating-coupled interferometry (GCI) experiments, HSL1 was fused to a non-cleavable Avi-tag[49],[50]. Baculovirus generation was carried out in DH10 cells and virus amplification was done in Spodoptera frugiperda Sf9 cells. For protein expression, Trichoplusia ni Tnao38 cells were infected with HAE, HSL1, BAM1 and SERK1 virus with a multiplicity of infection (MOI) of 3. The cells were grown 1 day at 28 °C and two days at 22 °C at 110 rpm. After every expression round, secretion of our proteins was detected using an anti-His-HRP conjugated antibody from Roche (Ref:11965085001) in a 1:2000 dilution. […] Next, affinity tags were removed by incubating the purified proteins with recombinant His-tagged TEV protease, in a 1:50 ratio. The cleaved tag and the protease were separated from the ectodomains by a second Ni^2+ affinity step. Proteins were further purified by size-exclusion chromatography on a Superdex 200 Increase 10/300 GL column (GE Healthcare) equilibrated in 20 mM citric acid pH 5.0, 150 mM NaCl. Peak fractions containing the single proteins or complexes were concentrated using Amicon Ultra concentrators (Millipore, MWCO 10,000 for SERK1 and 30,000 for HAE, HSL1, and BAM1) and used for crystallization or biochemical experiments. Proteins were analyzed for purity and structural integrity by SDS-PAGE.\nExperiments were performed at 25 °C using a MicroCal PEAQ-ITC (Malvern Instruments) with a 200 µL standard cell and a 40 μL titration syringe. HSL1, BAM1, and SERK1 proteins were gel-filtrated into the ITC buffer (20 mM sodium citrate pH 5.0, 150 mM NaCl). Molar protein concentrations for HSL1, BAM1, and SERK1 were calculated using their molar extinction coefficient and a molecular weight of 74,896 and 27,551 Da, respectively as previously determined. A typical experiment consisted of injecting 2 μL of a range between 75 and 600 μM solution of ligand into 10 to 30 μM HAE, HSL1, or BAM1 solution in the cell at 150 s intervals and 500 rpm stirring speed. The SERK1 vs HAE/HSL1-peptide experiments were performed by titrating 100 µM SERK1 in the cell, using the same injection pattern. ITC data were corrected for the heat of dilution by subtracting the mixing enthalpies for titrant solution injections into protein-free ITC buffer. Experiments were done in duplicates or triplicates, otherwise specified, and data were analyzed using the MicroCal PEAQ-ITC Analysis Software provided by the manufacturer. […] The N values were fitted to 1 in the analysis."}, "HSL1 ectodomain [1]": {"target": "T2, HSL1 ectodomain (Arabidopsis thaliana, UniProt Q9SGP2)", "T2 construct": "HSL1 (residues 17-618, AT1G28440); azurocidin or Drosophila BIP signal peptide (secretion signal) (N); made in house; host or cells: Trichoplusia ni Tnao38 insect cells (baculovirus)", "T2 sequence (Q9SGP2 17-618)": "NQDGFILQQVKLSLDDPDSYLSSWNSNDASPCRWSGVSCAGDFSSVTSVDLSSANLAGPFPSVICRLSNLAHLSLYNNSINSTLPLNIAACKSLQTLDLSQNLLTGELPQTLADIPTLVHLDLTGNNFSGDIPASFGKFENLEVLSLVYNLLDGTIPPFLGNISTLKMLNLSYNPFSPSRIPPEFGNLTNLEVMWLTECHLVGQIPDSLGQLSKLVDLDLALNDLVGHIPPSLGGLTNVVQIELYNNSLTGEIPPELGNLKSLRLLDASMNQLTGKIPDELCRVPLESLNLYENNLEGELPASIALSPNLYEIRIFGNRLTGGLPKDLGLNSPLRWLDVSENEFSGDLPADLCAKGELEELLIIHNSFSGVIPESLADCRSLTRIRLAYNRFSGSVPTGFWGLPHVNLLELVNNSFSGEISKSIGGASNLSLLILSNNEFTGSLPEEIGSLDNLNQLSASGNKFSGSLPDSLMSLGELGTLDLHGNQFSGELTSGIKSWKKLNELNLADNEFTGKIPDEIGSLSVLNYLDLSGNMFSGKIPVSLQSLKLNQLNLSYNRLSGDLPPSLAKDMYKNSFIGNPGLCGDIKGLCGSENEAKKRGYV", "test": "GCI binding kinetics, peptide vs immobilised HSL1", "conditions": "HSL1 on surface, peptide as analyte, 25 °C, pH 5, one-to-one binding model, read-out: ka association rate constant, peptide vs HSL1 (GCI)", "description": "25 μM of HSL1 were biotinylated with the biotin ligase BirA[60] (2 μM) for 1 h at 30 °C, in a volume of 200 μl. The buffer used in the reaction was: 25 mM Tris pH 8, 150 mM NaCl, 5 mM MgCl2, 2 mM 2-Mercaptoethanol, 0.15 mM Biotin, 2 mM ATP. Biotinylated proteins were purified by size-exclusion chromatography in 20 mM citric acid pH5, 150 mM NaCl and subsequently used in GCI experiments.\nGCI experiments were performed with the Creoptix WAVE system (Creoptix AG, Switzerland) using 4PCP WAVE chips (thin quasiplanar polycarboxylate surface; Creoptix, Switzerland). Chips were first conditioned with borate buffer (100 mM sodium borate pH 9.0, 1 M NaCl; Xantec, Germany). Chips were activated with 1:1 mix of 400 mM N-(3-dimethylaminopropyl)-N′-ethylcarbodiimide hydrochloride and 100 mM N-hydroxysuccinimide (Xantec, Germany). Streptavidin (50 µg/ml; Sigma, Germany) in 10 mM sodium acetate pH 5.0 (Sigma, Germany) was immobilized on the chip surface until saturation was reached, followed by passivation of the surface with BSA (50 µg/ml; Sigma, Germany) in 10 mM sodium acetate pH5.0, and a final quenching step with 1 M ethanolamine pH 8.0 (Xantec, Germany). Then, biotinylated HSL1 (ligand) (80–100 μg/ml) was captured on the streptavidin surface until the desired density was reached. Normal kinetic analysis were performed to measure the binding of IDL peptides (analyte) to HSL1. Experiments were performed at 25 °C with a 1:2 dilution series from a maximum concentration of 5–50 μM peptide, in 20 mM citrate pH 5, 250 mM NaCl, 0.005% Tween-20 v/v. To analyze the interaction kinetics of the co-receptor SERK1, 2 µM of the protein was used as a higher dilution with running buffer containing 5 µM of the IDL peptides being tested. Blank injections were used for double referencing and a dimethylsulfoxide (DMSO) calibration curve for bulk correction. Analysis and correction of the obtained data were performed using the Creoptix WAVE control software (correction applied: X and Y offset; DMSO calibration; double referencing). One-to-one binding model was used for both experiments."}, "[2]": {"target": "HSL1 (HAESA-LIKE 1) ectodomain (Arabidopsis) (UniProt Q9SGP2)", "test": "ITC; peptide (75 to 600 µM) injected into 10 to 30 µM HSL1 or BAM1 ectodomain in the cell; 25 °C; 20 mM sodium citrate pH 5.0, 150 mM NaCl; N fitted to 1"}, "HSL1 ectodomain [3]": {"target": "T2, HSL1 ectodomain", "test": "ITC, peptide titrated into isolated HSL1 ectodomain", "conditions": "peptide (syringe) into HSL1 ectodomain (cell), 25 °C, 20 mM sodium citrate pH 5.0, 150 mM NaCl, N fitted to 1, mean ± SD of at least two independent experiments, n.d = no binding detected", "excerpt": "All genes used for protein expression in Trichoplusia ni Tnao38 cells[46] were codon optimized and cloned into a modified pFastBac vector (Geneva Biotech) providing an azurocidin[47] or Drosophila BIP signal peptide, a TEV (tobacco etch virus protease) cleavage site and a Strep-9xHis tandem affinity tag at their carboxy terminus. The genes used are coding for the Arabidopsis ectodomains of HSL1 (residues 17-618, AT1G28440), HAE (residues 20-620, AT4G28490) SERK1 (residues 24–213, AT1G71830), and BAM1 (residues 20–637, AT5G65700). To perform Grating-coupled interferometry (GCI) experiments, HSL1 was fused to a non-cleavable Avi-tag[49],[50]. […] After every expression round, secretion of our proteins was detected using an anti-His-HRP conjugated antibody from Roche (Ref:11965085001) in a 1:2000 dilution. […] Proteins were analyzed for purity and structural integrity by SDS-PAGE.\nExperiments were performed at 25 °C using a MicroCal PEAQ-ITC (Malvern Instruments) with a 200 µL standard cell and a 40 μL titration syringe. […] Molar protein concentrations for HSL1, BAM1, and SERK1 were calculated using their molar extinction coefficient and a molecular weight of 74,896 and 27,551 Da, respectively as previously determined. […] Experiments were done in duplicates or triplicates, otherwise specified, and data were analyzed using the MicroCal PEAQ-ITC Analysis Software provided by the manufacturer. […]"}, "[4]": {"target": "T3, BAM1 (BARELY ANY MERISTEM 1) ectodomain (Arabidopsis, UniProt O49545 20-637)", "T3 chain": "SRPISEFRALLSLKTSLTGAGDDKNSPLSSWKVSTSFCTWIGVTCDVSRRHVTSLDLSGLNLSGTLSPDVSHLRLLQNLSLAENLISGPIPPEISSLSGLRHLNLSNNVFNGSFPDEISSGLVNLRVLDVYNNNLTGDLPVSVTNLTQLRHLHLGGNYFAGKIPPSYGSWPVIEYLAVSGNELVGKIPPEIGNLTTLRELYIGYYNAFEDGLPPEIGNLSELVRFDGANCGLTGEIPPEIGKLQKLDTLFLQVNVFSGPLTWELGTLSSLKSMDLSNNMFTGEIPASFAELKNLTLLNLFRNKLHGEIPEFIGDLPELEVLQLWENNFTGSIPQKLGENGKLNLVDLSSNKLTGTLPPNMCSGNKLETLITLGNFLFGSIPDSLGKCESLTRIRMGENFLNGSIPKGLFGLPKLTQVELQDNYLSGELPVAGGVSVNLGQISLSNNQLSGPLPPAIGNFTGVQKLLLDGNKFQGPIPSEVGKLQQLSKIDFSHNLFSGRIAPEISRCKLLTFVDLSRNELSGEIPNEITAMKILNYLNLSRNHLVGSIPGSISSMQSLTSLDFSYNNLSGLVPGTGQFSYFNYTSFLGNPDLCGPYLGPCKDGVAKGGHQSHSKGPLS", "test": "ITC; R109P L110I"}}, "note": "Square brackets hold non-standard residues; d marks the D form. Peptide text beside a SMILES is read from it. Hyp = O=C(O)[C@@H]1C[C@@H](O)CN1"}
{"molecule": "CC[C@H](C)[C@H](NC(=O)[C@@H]1CCCN1)C(=O)N1CCC[C@H]1C(=O)N1CCC[C@H]1C(=O)N[C@@H](CO)C(=O)N[C@@H](C)C(=O)N1C[C@H](O)C[C@H]1C(=O)N[C@@H](CO)C(=O)N[C@@H](CCCCN)C(=O)N[C@@H](CCCNC(=N)N)C(=O)N[C@@H](Cc1c[nH]cn1)C(=O)N[C@@H](CC(N)=O)C(=O)O", "note": "[IDA, INFLORESCENCE DEFICIENT IN ABSCISSION] (H-PIPPSA[Hyp]SKRHN-OH)", "values": [{"measurement": "Kd (dissociation constant), peptide vs BAM1", "setting": "BAM1 LRR ectodomain; ITC, peptide into BAM1 ectodomain (cell), 25 °C, 20 mM sodium citrate pH 5.0, 150 mM NaCl, N fitted to 1, mean ± SD of at least two independent experiments, n.d = no binding detected", "result": "did not detect interaction"}, {"measurement": "kon", "setting": "HSL1 ectodomain [1]", "result": 225000, "unit": "M⁻¹ s⁻¹"}]}
{"molecule": "IDA^K66AR67AH68A peptide (from UniProt Q8LAD7 58-69)", "values": [{"measurement": "fold reduction of binding affinity against wild-type IDA", "setting": "[2]", "result": 15, "unit": "fold"}]}
{"molecule": "CC(C)C[C@H](NC(=O)[C@@H](N)CCCNC(=N)N)C(=O)N[C@H](C(=O)N1C[C@H](O)C[C@H]1C(=O)N[C@@H](CO)C(=O)NCC(=O)N1C[C@H](O)C[C@H]1C(=O)N[C@@H](CC(N)=O)C(=O)N1CCC[C@H]1C(=O)N[C@@H](CC(C)C)C(=O)N[C@@H](Cc1c[nH]cn1)C(=O)N[C@@H](CC(N)=O)C(=O)O)C(C)C", "note": "[CLE9] (H-RLV[Hyp]SG[Hyp]NPLHN-OH)", "values": [{"measurement": "Kd (dissociation constant), peptide vs HSL1", "setting": "HSL1 ectodomain [3]", "result": "did not detect binding"}, {"measurement": "Kd", "setting": "BAM1 LRR ectodomain", "result": "94 ± 56", "unit": "nM"}]}
{"molecule": "RIVPSGPNPLHN", "note": "[CLE9 variant with the second residue substituted by the corresponding one of IDA]", "values": [{"measurement": "Kd", "setting": "[4]", "result": 129, "unit": "nM"}]}
